We go through three molecules from PMC3425833, “Synthesis, Urease Inhibition, Antioxidant, Antibacterial, and Molecular Docking Studies of 1,3,4-Oxadiazole Derivatives” (ISRN Pharmacology, 2012).

A word on the IC50: it is the point on the concentration scale where inhibition reaches its midpoint. A low value points to higher potency. In general, MIC refers to the smallest concentration in the dilution series that meets the test's criterion for growth inhibition. In general, inhibition refers to the relative decrease from the control value, in per cent.

One assay addresses Jack bean urease (Canavalia ensiformis, UniProt P07374). The experiment in a line: biochemical. The class given is biochemical.
The subject of another assay is Bacillus subtilis. The assay is described as follows: Antibacterial activity, serial tube dilution MIC. The class given is cell-based. The note with it: for MIC: Bacillus subtilis, read-out: MIC B. subtilus. The method, then:
(§1) The antibacterial activity data is represented in Table 2. […] Ciprofloxacin was used as standard drug. The compounds were found active against bacterial strains (2 Gram positive bacteria, namely, Staphylococcus aureus, Bacillus subtilis, and 2 Gram negative bacteria namely Escherichia coli, Shigella flexneri) in variable concentration. The antibacterial activities of 1,3,4-oxadiazole derivatives were evaluated in vitro by serial tube dilution method. The compounds and standard drug ciprofloxacin were dissolved in N,N-dimethylformamide (DMF) to give a concentration of 5 μg/mL (stock solution). Necessary apparatus and test tubes set of capacity 5 mL was washed cleaned and completely dried. For the bacterial culture double strength nutrient broth was used. The culture media was made by dissolving 15 g of nutrient broth in 1 L of distilled water. Approximately, 1 mL of culture media was prepared and transferred to each test tube by micropipette and capped with non-adsorbent cotton plugs. The test tubes containing 1 mL culture media was sterilized in an autoclave at 121°C for 20 min at 15 psi pressure. Sub-culturing of bacteria was done by transferring a loopful of particular bacterial strain from standard bacterial agar to 10 mL sterilized nutrient broth aseptically in a laminar air flow cabinet. It was then incubated for a period of 24 h at 37°C in a B. O. D. incubator. Bacterial strain suspension was prepared, after 24 h incubation, by aseptically inoculating 0.2 mL of revived bacterial colony into 100 mL of 0.9% m/v saline. A series of 5 assay tubes for a single derivative against each bacterial strain was employed. A stock solution of each test derivative at concentration 5 μg/mL (containing 1 mL nutrient broth) was serially diluted to achieve concentrations of 2.5, 1.25, 0.625, 0.313, and 0.156 μg/mL. Then, 0.1 mL of normal saline suspension of revived bacteria was added to each test tube. The inoculated tubes were incubated at 37°C for 24 h. The MIC (minimum inhibitory concentration) values were determined by subsequently checking for the absence of visual turbidity.

A further assay relates to Escherichia coli. The assay is described as follows: Antibacterial activity, serial tube dilution MIC. The assay is classed as cell-based. The note with it: for MIC: Escherichia coli, 24 h, average of three readings, 24 h at 37°C, read-out: MIC E. coli. The method, then:
as §1

For a further assay, the system named is Shigella flexneri. The experiment in a line: Antibacterial activity, serial tube dilution MIC. The class given is cell-based. Conditions: for MIC: Shigella flexneri, average of three readings, 24 h at 37°C, read-out: MIC S. flexneri; for Antibacterial activity against S. flexneri compared to standard ciprofloxacin: in words. The method, then: as §1
Another assay deals with Staphylococcus aureus. The experiment in a line: Antibacterial activity, serial tube dilution MIC. The assay is classed as cell-based. The note with it: for MIC: Staphylococcus aureus, read-out: MIC S. aureus; for Antibacterial activity against S. aureus compared to standard ciprofloxacin: in words. The method, then:
as §1

The nature of assay [1]: DPPH radical scavenging (antioxidant) assay. The note with it: for IC50: DPPH 300 μM, half an hour at 37°C. The method, then:
The free radical scavenging capacity of the compounds was measured by 1,1-diphenyl-2-picrylhydrazyl. Test compounds were allowed to react with stable free radical, 1,1-diphenyl-2-picrylhydrazyl radical (DPPH) for half an hour at 37°C. The concentration of DPPH was kept as 300 μM. The test samples were dissolved in DMSO while the DPPH solution was prepared in ethanol. After incubation, decrease in absorption was measured at 515 nm using microplate reader. Percent radical scavenging activity of samples was determined in comparison with a DMSO treated as control. Propyl gallate and 3-tert-Butyl-4-hydroxyanisole were used as standards.

The mark [2] stands for this setting: average of three readings, 24 h at 37°C.

In brackets after ≈: the same amount, converted by molar mass. Entries after “also recorded” stand apart in the source; their conditions may differ. Read-outs that look alike come from different tables or passages of the source.

Jack bean urease, sequence (P07374 whole entry, looked up): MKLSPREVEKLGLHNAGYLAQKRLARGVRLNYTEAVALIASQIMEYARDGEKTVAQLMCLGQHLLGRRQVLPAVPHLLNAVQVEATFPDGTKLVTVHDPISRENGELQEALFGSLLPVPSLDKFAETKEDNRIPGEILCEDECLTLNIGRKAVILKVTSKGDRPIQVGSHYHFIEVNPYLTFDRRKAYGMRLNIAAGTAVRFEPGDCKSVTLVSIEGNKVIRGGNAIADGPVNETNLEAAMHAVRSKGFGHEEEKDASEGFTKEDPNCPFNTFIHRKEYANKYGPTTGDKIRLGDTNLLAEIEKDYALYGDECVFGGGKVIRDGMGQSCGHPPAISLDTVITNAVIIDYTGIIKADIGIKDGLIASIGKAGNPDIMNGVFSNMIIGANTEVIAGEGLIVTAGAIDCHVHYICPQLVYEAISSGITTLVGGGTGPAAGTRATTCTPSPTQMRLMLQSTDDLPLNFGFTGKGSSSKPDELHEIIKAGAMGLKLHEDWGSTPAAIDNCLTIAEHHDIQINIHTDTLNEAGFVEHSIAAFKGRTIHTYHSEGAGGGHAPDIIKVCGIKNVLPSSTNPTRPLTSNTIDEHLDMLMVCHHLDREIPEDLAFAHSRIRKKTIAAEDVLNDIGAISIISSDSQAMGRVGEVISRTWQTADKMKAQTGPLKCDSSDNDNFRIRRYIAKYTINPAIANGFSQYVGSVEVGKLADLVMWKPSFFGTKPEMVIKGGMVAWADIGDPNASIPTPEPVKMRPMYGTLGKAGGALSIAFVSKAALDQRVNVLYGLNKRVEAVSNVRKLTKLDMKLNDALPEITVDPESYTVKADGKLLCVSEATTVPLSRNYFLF

For `COc1cccc(Cc2n[nH]c(=S)o2)c1` [Compound 4n, 5-(3-Methoxybenzyl)-1,3,4-oxadiazole-2(3H)-thione], the IC50 at Jack bean urease was 12.2 ± 0.05 µM; in assay [1], 60.3 ± 4.3 µM. In addition, the “Antibacterial activity against B. subtilus relative to ciprofloxacin” value in the assay with Bacillus subtilis is 4 fold. Also, the MIC stood at 0.156 µg/mL (≈ 0.702 µM) in the assay on Bacillus subtilis (24 h), 0.625 µg/mL (≈ 2.81 µM) in the assay on Escherichia coli, 0.156 µg/mL (≈ 0.702 µM) in the assay with Shigella flexneri and 0.156 µg/mL (≈ 0.702 µM) in the assay on Staphylococcus aureus (24 h). Moreover, the “Antibacterial activity against S. flexneri compared to standard ciprofloxacin” value in the assay on Shigella flexneri was “two-fold activities”. In addition, in the assay with Staphylococcus aureus, the “Antibacterial activity against S. aureus compared to standard ciprofloxacin” value is “equipotent activity”.
Consider `COc1cccc(CCc2n[nH]c(=S)o2)c1` [Compound 4o, 5-(3-Methoxyphenethyl)-1,3,4-oxadiazole-2(3H)-thione], for which the 50% inhibitory concentration (IC50) at Jack bean urease was 15.1 ± 0.8 µM; in assay [1] it was 43.6 ± 3.1 µM. Moreover, the minimal inhibitory concentration (MIC) in the assay with Bacillus subtilis (setting [2]) worked out at 0.625 µg/mL (≈ 2.64 µM); in the assay with Escherichia coli it was 0.313 µg/mL (≈ 1.32 µM); in the assay on Shigella flexneri, 0.156 µg/mL (≈ 0.66 µM); in the assay on Staphylococcus aureus (setting [2]), 2.5 µg/mL (≈ 10.6 µM). In addition, the “Antibacterial activity against S. flexneri compared to standard ciprofloxacin” value in the assay on Shigella flexneri is “two-fold activities”.
Take `Fc1cc(Cl)ccc1-c1n[nH]c(=S)o1` [Compound 4r, 5-(4-Chloro-2-fluorophenyl)-1,3,4-oxadiazole-2(3H)-thione]: on Jack bean urease (qualitative statement), the “Urease inhibitory activity in words” value is given as “weak inhibitory activities”. Further, the inhibition at 100 µM at Jack bean urease (read-out: % inhibition of Jack bean urease) amounted to 39%. The minimal inhibitory concentration (MIC) in the assay with Bacillus subtilis (24 h) worked out at 0.313 µg/mL (≈ 1.36 µM); with Shigella flexneri, 0.313 µg/mL (≈ 1.36 µM); in the assay on Staphylococcus aureus (setting [2]) it was 0.156 µg/mL (≈ 0.676 µM). For the same molecule, the “Antibacterial activity against E. coli compared to standard ciprofloxacin” value with Escherichia coli (in words) is listed as “equipotent; also recorded: considerably less active”. Besides, in the assay with Shigella flexneri, the “Antibacterial activity against S. flexneri compared to standard ciprofloxacin” value is “equipotent activity”. In addition, in the assay on Staphylococcus aureus, the “Antibacterial activity against S. aureus compared to standard ciprofloxacin” value is given as “equipotent activity”. Further, the midpoint of inhibition in assay [1], the IC50, lay at 10.8 ± 0.2 µM. In assay [1] (in words), the “DPPH radical scavenging activity compared to standard propyl gallate” value was “four-fold”.
